Laboratory results taken from patent US20040121965A1, “Method of treating resistant tumors” (Wyeth Holdings Corporation, priority 2002, published 2004).
Where two headings read alike, the source gives them in different places.

Tests used:
KB-3-1 = assay: Cell survival assay (SRB), KB-3-1; type: cell-based, human
Method in brief: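 SRB protein stain as survival read-out; IC50 = conc. giving 50% growth inhibition. Compound serially diluted, duplicate wells, 3 d exposure; TCA fixation (10% final, 1 h, 4 °C), 0.04% SRB/1% acetic acid 10 min, solubilised in 10 mM Trizma Base, A read.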

KB-V1 (MDR1++) [1] = test system: KB-V1 (MDR1++)
KB-V1 (MDR1++) [2] = assay: Cell survival assay (SRB), KB-V1 (MDR1++)
KB-8-5 (MDR1+) [3] = assay: Cell survival assay (SRB), KB-8-5 (MDR1+)
KB-8-5 (MDR1+) [4] = test system: KB-8-5 (MDR1+)
[5] = test system: Human Melanoma Carcinoma Lox; conditions: staged LOX xenograft; at MTD ('<': MTD not achieved); days 11-15
MX-1W tumor = assay: Growth of tumors in nude mice, MX-1W xenograft; type: in vivo
Excerpt: 2.4. Growth of Tumors in Nude Mice.

[6] = KB-3-1 cells (paclitaxel-sensitive parent), read-out: In vitro IC50 (nM) KB-3-1

| Compound | IC50 (KB-3-1; [6]) | IC50 (KB-V1 (MDR1++) [1]) | Ratio KBV1/KB (KB-V1 (MDR1++) [2]) | Ratio KB85/KB (KB-8-5 (MDR1+) [3]) | IC50 (KB-8-5 (MDR1+) [4]) | further results |
| --- | --- | --- | --- | --- | --- | --- |
| (E,4S)-4-[((2S)-3,3-dimethyl-2-{[(2S)-3-methyl-2-(methylamino)-3-(1-methyl-1H-ethyl-1H-indol-3-yl)butanoyl]amino}butanoyl)amino]-2,5-dimethyl-2-hexenoic Acid [Example 132] | 0.51 nM | 890 nM |  |  |  |  |
| CCN(C(=O)[C@@H](NC(=O)[C@@H](NC)C(C)(C)c1ccccc1)C(C)C)[C@H](/C=C(\C)C(=O)O)C(C)C.O=C(O)C(F)(F)F [Example 95, N,β,β-trimethyl-L-phenylananyl-N^1-[(1S,2E)-3-carboxy-1-isopropylbut-2-enyl]-N^1-ethyl-L-valinamide Trifluoroacetic Acid] | 38.6 nM | 2550 nM | 66.0 | 2.1 | 82 nM |  |
| (2E,4S)-2,5-dimethyl4-(methyl{(2S)-2-[(N,β,1-trimethyl-L-phenylalanyl)amino]butanoyl}amino)hex-2-enoic Acid Trifluoroacetic Acid [Example 99] | 60 nM | 1320 nM |  |  | 87 nM |  |
| CN[C@H](C(=O)N[C@H](C(=O)N(C)[C@H](/C=C(\C)C(=O)O)C(C)C)C(C)(C)C)C(C)(C)c1cccc(C)c1 [Example 8, N,β,β,3-Tetramethyl-L-phenylalanyl-N^1-[(1S,2E)-3-carboxy-1-isopropyl-2-butenyl]-N^1,3-dimethyl-L-valinamide] |  |  | 68.5 | 2.6 |  | IC50 (KB-3-1; Homo sapiens, KB 3-1, 72 h, amount of drug needed to kill 50% of cells after three days continuous exposure, Table 11, read-out: IC50 in parental cell line KB-3-1): 0.3 nM; IC50 (KB-3-1; Homo sapiens, KB 3-1, KB-3-1 cells (paclitaxel-sensitive parent), read-out: In vitro IC50 (nM) KB-3-1): 0.274 nM; IC50 (KB-V1 (MDR1++) [2]; Homo sapiens, read-out: In vitro IC50 (nM) KBV1): 18.7 nM; Activity in nude mice animal model (% T/C @ MTD on days 11-15) LOX [5]: 2%; IC50 (KB-8-5 (MDR1+) [3]; Homo sapiens, MDR1, read-out: In vitro IC50 (nM) KB85): 0.699 nM; effect on growth of MX-1W (paclitaxel-resistant) tumor (MX-1W tumor; mouse, in vivo): inhibited the growth; Activity in nude mice animal model (% T/C @ MTD on days 11-15) MX-1W (MX-1W tumor; staged MX-1W xenograft, at MTD, days 11-15): 9% |
| CCOC(=O)/C(C)=C/[C@H](C(C)C)N(C)C(=O)[C@@H](NC(=O)[C@H](NC)C(C)(C)c1ccc(C)c(C)c1)C(C)(C)C [Example 13b, N,β,β-3,4-pentamethyl-D-phenylalanyl-N^1-[(1S,2E)4-ethoxy-1-isopropyl-3-methyl4-oxo-2-butenyl]-N^1,3-dimethyl-L-valinamide] | 295 nM | ≥ 3000 nM | 10.2 | 4.8 | 1410 nM |  |
| CN[C@H](C(=O)N[C@H](C(=O)N(C)[C@H](/C=C(\C)C(=O)O)C(C)C)C(C)(C)C)C(C)(C)c1ccccc1 [Example 134, (E,4S)-4-[((2S)-3,3-dimethyl-2-{[(2S)-3-methyl-2-(methylamino)-3-phenylbutanoyl]amino}butanoyl)(methyl)amino]-2,5-dimethyl-2-hexenoic Acid] |  |  | 31.3 | 1.4 |  | IC50 (KB-3-1; read-out: In vitro IC50 (nM) KB-3-1): 28 nM; IC50 (KB-V1 (MDR1++) [1]; human): 879 nM; IC50 (KB-8-5 (MDR1+) [4]; human): 39 nM |
| (2E,4S)4-[{(2R)-2-cyclohexyl-2-[(N,β,1-trimethyl-L-phenylalanyl)amino]ethanoyl}(methyl)amino]-2,5-dimethylhex-2-enoic Acid Trifluoroacetic Acid [Example 98] | 133 nM | 2940 nM |  |  | 186 nM |  |
| CN[C@@H](C(=O)N[C@H](C(=O)N(C)[C@H](/C=C(\C)C(=O)O)C(C)C)C(C)(C)C)C(C)(C)c1ccc(OC(C)C)cc1 [Example 69, 0-isopropyl-N,β,β-trimethyl-D-tyrosyl-N^1-[(1S,2E)-3-carboxy-1-isopropylbut-2-enyl]-N^1,3-dimethyl-L-valinamide] | 55 nM | 2340 nM | 42.6 | 2.8 | 151 nM |  |
| N,β,β-trimethyl-L-phenylalanyl-N^1-{(1S,2E)-4-[[(1S,2E)-3-carboxy-1-isopropylbut-2-enyl](methyl)amino]-1-isopropyl-3-methyl-4-oxobut-2-enyl-N^1,3-dimethyl-L-valinamide [Example 114] | 55 nM | > 3000 nM |  | 3.5 | 192 nM |  |
| CN[C@H](C(=O)N[C@@H](CCC(=O)O)C(=O)N(C)[C@H](/C=C(\C)C(=O)O)C(C)C)C(C)(C)c1ccccc1 [Example 139, N,β,β-trimethyl-L-phenylalanyl-N^1-[(1S,2E)-3-carboxy-1-isopropyl-2-butenyl]-N^1-methyl-L-alpha-glutamine] | 503 nM | ≥ 3000 nM | 6.0 | 1.9 | 975 nM |  |
